{"source": "patent US20220339135A1", "about": "“COMPOSITIONS AND METHODS FOR MODULATING AN INFLAMMATORY RESPONSE” (Enzychem Lifesciences Corporation, priority 2019, published 2022)", "key": {"[1]": {"system": "PAK in LPL or GPIHBP-1 silenced cells", "experiment": "In vitro phagocytosis assay in LPL or GPIHBP-1 silenced cells", "assay_type": "cell-based", "conditions": "1 h after infection", "method": "For immunofluorescence-based measurement of phagocytosis and clearance, BMDMs were grown on glass coverslips in 24-well plates. The cells were infected with PAK (MOI, 50) for different time intervals and then were treated with 10 μg/ml gentamycin for 30 minutes to remove extracellular PAK attached to the cell surface. The infected cells were washed with ice-cold PBS several times, followed by fixing for 10 minutes at room temperature in methanol or 10% paraformaldehyde. The cells were stained with anti-Pseudomonas antibody (Abcam) and then were incubated with goat anti-rabbit IgG secondary antibody conjugated with Alexa Fluor 488. […]\nFor measurement of phagocytosis by flow cytometry, PAK was heat-killed and stained with 10 μM of SYTO9 (Thermo Scientific™) at room temperature for 30 minutes and then was extensively washed with ice-cold PBS several times. The staining dose of PAK was determined by flow cytometry. […] The fluorescence of extracellular PAK attached to the cell surface was quenched by replacing the medium with PBS containing 0.2% trypan blue.\nFor CFU counting-based phagocytosis and bacterial killing assay, PAK was cultured at 37° C. overnight with continuous shaking and was resuspended in PBS. […] The diluted aliquots were spread on LB agar plates, and CFU was counted after incubation of the plates overnight at 37° C."}, "NETosis of dHL-60 cells": {"system": "NETosis of dHL-60 cells", "experiment": "IMQ-induced NETosis, confocal microscopy of DNA-elastase complex", "assay_type": "cell-based, human", "conditions": "PLAG 10 or 100 μg/mL, dose-dependent", "method": "HL-60 cells were differentiated (dHL-60) to neutrophil-like cells in the culture medium with the addition of 1.3% DMSO (Sigma) for 5 days in a humidified atmosphere at 37° C. without changing the medium. dHL-60 cells (2×10^5 cells/mL) were loaded with 5 μM fluo-4 AM for 45 minutes and washed three times with warmed modified (37° C.) HBSS buffer (137.93 mM NaCl, 5.33 mM KCl, 2 mM CaCl2, 1 mM MgSO4, 2.38 mM HEPES, 5.5 mM glucose, pH to 7.4). The cells were seeded on black-walled 96-well plates and then treated with vehicle (0.1% DMSO), imiquimod (10 μg/mL) or PLAG (10 or 100 μg/mL) just before measurement. Baseline fluorescence was measured before treatment, and fluorescence was read every 20 s for 700 s using an excitation wavelength of 494 nm, an emission wavelength of 516 nm in a FlexStation 3 microplate reader (Molecular Devices). Fluorescence values were reported as F/Fo according to the calculation: [ΔF=(494 nm)f/(516 nm)f−(494 nm)0/(516 nm)0]. […]\nHL-60 cells were harvested and detected extracellular DNA-elastase complex by using ELISA and visualized by using confocal microscopy (×400) or scanning electron microscope (SEM) (×8000). HL-60 cells were washed with PBS and mounted in DAPI-containing fluorescence microscopy mounting medium (Invitrogen). Samples were analyzed with a laser scanning confocal microscope (Carl Zeiss, Oberkochen, Germany)."}, "[2]": {"system": "MIP2 and CXCL8 in BMDM and THP-1", "experiment": "Gemcitabine-induced MIP-2 / CXCL8, RT-PCR and ELISA", "assay_type": "cell-based", "conditions": "dose-dependent", "text": "Total RNA was extracted using the Total RNA Extraction Solution (Favorgen, Taiwan), according to the manufacturer's instructions. This RNA was used in reverse transcription reactions with oligo-dT primers and M-MLV RT reagents (Promega, Madison, Wis., USA), according to the manufacturer's instructions. For RT-PCR, the synthesized cDNA was mixed with 2×PCR Master Mix (Solgent, Daejeon, Republic of Korea) and 10 pmol specific PCR primer pair following the manufacturer's protocol. […] An SYBR Green kit (Applied Biosystems, Foster City, Calif., USA) was used for real-time PCR (qPCR) analysis of cDNA according to the manufacturer's instructions. […] The relative expression levels of target genes were calculated by the 2^-ΔΔCT relative quantification method. […] The concentration of MIP-2 was measured using ELISA kits for MIP-2 (R&D Systems, Minneapolis, Minn., USA according to the manufacturers' instructions. Cytokine levels were estimated by interpolation from a standard curve generated using an ELISA reader (Molecular Devices) at 450 nm. Total RNAs from cells were isolated using TRIzol® reagent (Invitrogen, CA, USA) according to the manufacturer's instructions. RT-PCR was performed using PCR reagent (Bioassay, Daejeon, South Korea). […]"}}, "note": "“Also recorded” adds a separate entry of the source."}
{"smiles": "CCCCC/C=C\\C/C=C\\CCCCCCCC(=O)OC(COC(C)=O)COC(=O)CCCCCCCCCCCCCCC", "note": "(racemic) [PLAG, 1-palmitoyl-2-linoleoyl-3-acetylglycerol]", "values": [{"measurement": "PLAG effect on enhanced bacterial phagocytosis in silenced cells", "setting": "[1]", "result": "enhances neither phagocytosis nor bacterial killing; also recorded: abrogated"}, {"measurement": "IMQ-induced NETosis", "setting": "NETosis of dHL-60 cells", "result": "promotes"}, {"measurement": "gemcitabine-induced chemokines MIP2 and CXCL8, transcriptional and secreted protein level", "setting": "[2]", "result": "effectively reduced"}]}
